Measurements as given in US6333313A, “Clinical use of oxytocin alone or in combination to treat bone disorders” (Board of Regents, The University of Texas System, priority 1999, dated 2001).
Blank lines part the entries; values can stand above or below the molecule they belong to. Starred links: 1 amine or outer side, 2 acyl side, 3 side chain; linkers in the order of their positions; H or OH if unused. Positions of bridges follow the written chain, without caps; N, C: chain ends. Non-standard residues stand in square brackets, D forms with d. Residues, ends and D or L forms follow the SMILES beside them. No end group written: not given here. X1 = O=C(CC1(S[*:2])CCCCC1)[*:1]; Orn = NCCC[C@H](N)C(=O)O

Experiments:
bone; uterus = settings: rats; compared with estradiol; cited from earlier work
rat osteogenic cells = settings: in vitro; cited from earlier work
bone formation [1] = settings: in vivo, high dose; cited from earlier work
OTR [2] = target: T1, OTR (Homo sapiens, UniProt P30559); experiment: Whole cell OTR ligand binding, Scatchard analysis, Saos-2 cells; design: Undifferentiated or differentiated human trabecular bone cells with osteogenic capacity in primary culture express oxytocin receptors (OTRs); endogenous in cells; host or cells: primary human osteoblastic cells from rib trabecular bone explants (undifferentiated, or differentiated in mineralizing medium)
T1 sequence (P30559 1-389): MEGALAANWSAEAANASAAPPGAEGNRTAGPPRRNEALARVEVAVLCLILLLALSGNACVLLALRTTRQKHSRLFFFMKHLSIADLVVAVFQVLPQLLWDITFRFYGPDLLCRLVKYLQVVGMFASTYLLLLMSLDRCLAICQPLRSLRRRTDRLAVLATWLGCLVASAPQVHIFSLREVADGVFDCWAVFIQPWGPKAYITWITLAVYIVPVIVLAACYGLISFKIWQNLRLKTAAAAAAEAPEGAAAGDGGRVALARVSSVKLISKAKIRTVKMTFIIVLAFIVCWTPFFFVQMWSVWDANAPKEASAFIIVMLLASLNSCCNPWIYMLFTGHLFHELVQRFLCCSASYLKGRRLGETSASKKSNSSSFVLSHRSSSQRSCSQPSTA
Method: (§1) Cell Culture Conditions: Human osteosarcoma cells (Saos-2) cells were obtained from the ATCC (Rockville, Md.). Human osteoblasts (Cheng et al., 1994; Civitelli et al., 1993) were prepared from explants of cultured rib trabecular. These cells were grown in mineralizing media consisting of DMEM supplemented with 10% fetal bovine serum (FBS), 2% penicillin/streptomycin, dexamethasone (100 nM), ascorbate (50 μg/ml, and β3-glycerophosphate (10 μg/ml) in a humidified tissue culture incubator at 37C under an atmosphere of 5% CO2 and 95% air. These conditions accelerate the osteoblastic modulation of undifferentiated human trabecular bone cells and the production of osteogenic mineralizeable collagen matrix (Cheng et al., Civitelli et al., 1993). To retain undifferentiated osteoblastic phenotype, cells were cultured in the absence of dexamethasone, ascorbate, and β-glycerophosphate. Osteoblast phenotype was verified by alkaline phosphatase activity and mineralization of the extracellular matrix using von Kossa staining. The cells were used on the first passage following initial plating.
(§2) Determination of OTR ligand binding: OTA was monoiodinated as previously described (Hinko and Soloff, 1992). […] The concentration of cellular DNA was determined in parallel, using the Hoechst dye H 33258 and a Hoefer DyNA Quant fluorometer according to the manufacturer's instructions.

OTR [3] = target: T1, OTR; experiment: Whole cell OTR ligand binding, Scatchard analysis, undifferentiated osteoblastic cells; design: Undifferentiated or differentiated human trabecular bone cells with osteogenic capacity in primary culture express oxytocin receptors (OTRs); endogenous in cells; host or cells: primary human osteoblastic cells from rib trabecular bone explants (undifferentiated, or differentiated in mineralizing medium); settings: +/- SE
Method: as §1, §2

OTR [4] = target: T1, OTR; experiment: Whole cell OTR ligand binding, Scatchard analysis, differentiated osteoblastic cells; design: Undifferentiated or differentiated human trabecular bone cells with osteogenic capacity in primary culture express oxytocin receptors (OTRs); endogenous in cells; host or cells: primary human osteoblastic cells from rib trabecular bone explants (undifferentiated, or differentiated in mineralizing medium)
Method: as §1, §2

OTR [5] = target: T1, OTR; experiment: Intracellular calcium levels, differentiated osteoblastic cells; assay type: cell-based; design: Undifferentiated or differentiated human trabecular bone cells with osteogenic capacity in primary culture express oxytocin receptors (OTRs); endogenous in cells; host or cells: primary human osteoblastic cells from rib trabecular bone explants (undifferentiated, or differentiated in mineralizing medium); settings: 10 nM OT
Method: (§3) FIG. 3A, FIG. 3B and FIG. 3C Intracellular calcium transients after 10 nM oxytocin treatment. (FIG. 3A.) Undifferentiated osteoblastic cells; (FIG. 3B.) differentiated osteoblastic cells; and (FIG. 3C.) Saos-2 cells. Cells were incubated at 37C and treated in the following manner; 100 nM OTA for 1 min, […], wash cells 3 times to remove bound antagonist, 10 min recovery, and then 10 nM OT treatment.
as §1, with “Osteoblast phenotype was verified by alkaline phosphatase activity and mineralization of the extracellular matrix using von Kossa staining. The cells were used on the first passage following initial plating.” left out

[6] = system: Undifferentiated and differentiated osteoblastic cells; experiment: PGE2 levels in media of OT-stimulated cells (EIA); assay type: cell-based, human; settings: 100 nM OT, over nontreated controls
Method: FIG. 4A and FIG. 4B PGE2 levels in media of cells stimulated with 100 nM OT. (FIG. 4A.) Undifferentiated osteoblastic cells and (FIG. 4B.) differentiated osteoblastic cells. Each point is the mean +/- SE of triplicates. * indicates P<0.05 compared to matched basal control.
Prostaglandin E2 (PGE2) levels. PGE2 levels in media were measured using a PGE2 enzyme immunoassay (EIA) system from Amersham Life Sciences (Arlington Heights, Ill.) as previously described (Copland, et al., 1999). The sensitivity of the assay was 2.5 pg/ml with an intraassay coefficient of variation of 6.3% and the interassay coefficient of variation of 6.9%.
Undifferentiated and differentiated osteoblastic cells were tested to determine whether OT could stimulate PGE2 synthesis. Undifferentiated osteoblastic cells that were allowed to come to confluence and maintained for 2 weeks in either 10% FBS/DMEM or in mineralizing medium (differentiated osteoblast), synthesized and released PGE2 into the media in response to 100 nM OT (FIG. 4A and FIG. 4B, respectively).

OTR [7] = target: T1, OTR; experiment: Intracellular calcium levels, Saos-2 cells; assay type: cell-based; settings: 10 nM OT
Method: as §3
as §1, with “Osteoblast phenotype was verified by alkaline phosphatase activity and mineralization of the extracellular matrix using von Kossa staining. The cells were used on the first passage following initial plating.” left out

OTR [8] = target: T1, OTR; experiment: Intracellular calcium levels, undifferentiated osteoblastic cells; assay type: cell-based; design: Undifferentiated or differentiated human trabecular bone cells with osteogenic capacity in primary culture express oxytocin receptors (OTRs); endogenous in cells; host or cells: primary human osteoblastic cells from rib trabecular bone explants (undifferentiated, or differentiated in mineralizing medium); settings: 10 nM OT
Method: as §3
as §1, with “Osteoblast phenotype was verified by alkaline phosphatase activity and mineralization of the extracellular matrix using von Kossa staining. The cells were used on the first passage following initial plating.” left out

bone formation [9] = settings: systemic administration; cited from earlier work
cortical bone [10] = settings: injections with mild exercise; old female rats; cited from earlier work
rat osteoblastic cell = settings: combined with insulin-like growth factor-1; cited from earlier work
bone formation [11] = settings: in vivo; cited from earlier work
cortical bone [12] = settings: ovariectomized rats; cited from earlier work

Molecule: Oc1ccc2c(c1)CC[C@H](c1ccccc1)[C@@H]2c1ccc(OCCN2CCCC2)cc1 [CP-336,156]
uterine-stimulating effects (bone; uterus): without the uterine-stimulating effects associated with estradiol

Molecule: substance P: a neuropeptide with wide distribution in central and peripheral nervous system (RPKPQQFFGLM; ends and bridges not checked; UniProt P20366 58-68, looked up)
cell proliferation (rat osteogenic cells): increased cell proliferation in a dose dependent fashion

Molecule: C=C1/C(=C\C=C2/CCC[C@]3(C)[C@@H]([C@H](C)CCCC(C)(C)O)CC[C@@H]23)C[C@@H](O)C[C@@H]1O [1,25 dihydroxyvitamin D3]
bone formation (bone formation [1]): stimulates bone formation

Bmax (OTR [2]): 24.6+/-3.2 fmol/10 μg DNA
Kd (OTR [2]; read-out: apparent Kd): 0.15 ± 0.028 nM
Bmax (OTR [3]): 5.7+/-0.8 fmol/10 μg DNA
Kd (OTR [3]; read-out: apparent Kd): 0.132 ± 0.027 nM
Bmax (OTR [4]): 12.3+/-1.4 fmol/10 μg DNA
Kd (OTR [4]; read-out: apparent Kd): 0.175 ± 0.034 nM
Molecule: CC[C@H](C)[C@@H]1NC(=O)[C@H](Cc2ccc(OC)cc2)NC(=O)CC2(CCCCC2)SSC[C@@H](C(=O)N2CCC[C@H]2C(=O)N[C@@H](CCCN)C(=O)N[C@@H](Cc2ccc(O)cc2)C(N)=O)NC(=O)[C@H](CC(N)=O)NC(=O)[C@H]([C@@H](C)O)NC1=O [{^125 I]OTA] (Y(Me)ITNCP[Orn]Y-NH2; linker N-5 via X1)

Molecule: CC[C@H](C)[C@@H]1NC(=O)[C@H](Cc2ccc(O)cc2)NC(=O)[C@@H](N)CSSC[C@@H](C(=O)N2CCC[C@H]2C(=O)N[C@@H](CC(C)C)C(=O)NCC(N)=O)NC(=O)[C@H](CC(N)=O)NC(=O)[C@H](CCC(N)=O)NC1=O [OT, oxytocin]
rise in [Ca2+]i (OTR [5]): responded within seconds to OT treatment with a rise in [Ca^2+ ]i
increase in PGE2 synthesis ([6]; 15 and 30 minutes): 2 fold
increase in PGE2 synthesis ([6]; by 1 h of OT stimulation): 4-6 fold
rise in [Ca2+]i (OTR [7]): responded within seconds to OT treatment with a rise in [Ca^2+ ]i
rise in [Ca2+]i (OTR [8]): responded within seconds to OT treatment with a rise in [Ca^2+ ]i

Molecule: IGF-1/IGF BP-3: insulin-like growth factor-1 combined with insulin-like growth factor binding protein-3
effect of IGF-1 on bone formation when combined with IGF BP-3 (bone formation [9]): potentiated

Molecule: Growth Hormone: growth hormone injections
formation and strength of cortical bone (cortical bone [10]): increase the formation and strength of cortical bone

B1: Osteogenic Protein-1: osteogenic protein-1 (protein, UniProt P18075 293-431, looked up)
Bone morphogenetic protein 7: STGSKQRSQNRSKTPKNQEALRMANVAENSSSDQRQACKKHELYVSFRDLGWQDWIIAPEGYAAYYCEGECAFPLNSYMNATNHAIVQTLVHFINPETVPKPCCAPTQLNAISVLYFDDSSNVILKKYRNMVVRACGCH
stimulation of rat osteoblastic cell differentiation and proliferation (rat osteoblastic cell): synergistic with insulin-like growth factor-1
new bone formation (bone formation [11]): induces new bone formation

B2: Parathyroid Hormone: parathyroid hormone (protein, UniProt P01270 32-115, looked up)
Parathyroid hormone: SVSEIQLMHNLGKHLNSMERVEWLRKKLQDVHNFVALGAPLAPRDAGSQRPRKKEDNVLVESHEKSLGEADKADVNVLTKAKSQ
modifications: Parathyroid hormone
femoral length and strength in cortical bone (cortical bone [12]): dose dependent increase
